Assay results reported in patent US6946297B2, “System for stabilizing samples” (priority 1999, dated 2005).

Key:
Format in all cases: cell-based
Escherichia coli = test: Survival of organisms in inoculated urine with preservative components, 24 hours at room temperature; parameters: key to Survival value esco: 24 h count / control count; 1 = no change, 0.1 = 1-log decrease
Method: (§1) Antimicrobial activity for each active ingredient in the Chemistat I formulations was first determined for representative organisms listed in Table I. A culture for each organism of interest on blood agar was incubated at 36° C. overnight. About two to three colonies of the organism were transferred via sterile swab from the blood agar culture into a 5 ml Mueller-Hinton broth culture tube, which was then incubated on a rotator for about two to three hours at 36° C. Using a spectrophotometer set at a wavelength of 630 nm, the turbidity of broth culture was adjusted by the addition of Mueller-Hinton broth to an optical density equivalent to approximately 1×10^8 colony forming units (cfu)/ml to form an inoculum solution. An aliquot of the inoculum solution was plated onto blood agar to determine the actual control organism count. For each component listed in Table II, the component was added to filter-sterilized pooled normal urine at the concentration given in Table II to form a test sample. The test sample was then inoculated with an aliquot of the inoculum solution providing a final organism count of approximately 1×10^6 cfu/ml of test sample. Immediately after thorough mixing, an aliquot of the test sample was removed and serially diluted in PBS, and serial dilutions were plated onto blood agar to determine the Time Zero organism count. The inoculated plates were incubated at 36° C., and organism counts were recorded after 18-24 hours. After incubating the test sample for 24 hours at room temperature, an aliquot of the test sample was again removed, serially diluted in PBS and plated onto blood agar. After incubating for 18-24 hours at 36° C., organism counts were obtained. The organism count obtained after 24 hours incubation at room temperature was divided by the control organism count to provide the survival value of each organism as recorded in Table II. With respect to changes in microbial count, a survival value of 1 represents no change; a survival value of 0.1 indicates a 1-log decrease; a survival value of 10 indicates a 1-log increase; and a survival value of 0.000 represents a decrease of greater than or equal to 3-logs. In comparison, the lower the survival value, the greater the component's capacity for controlling organism growth.

Klebsiella pneumoniae = test: as above; settings: for Concentration inhibitory against Klebsiella pneumoniae (ineffective up to = >): component alone
Method: as §1

Proteus vulgaris = test: as above; settings: for Concentration inhibitory against Proteus vulgaris (ineffective up to = >): component alone
Method: as §1

Pseudomonas aeruginosa = test: as above; settings: for Concentration inhibitory against Pseudomonas aeruginosa (ineffective up to = >): component alone
Method: as §1

Enterococcus faecalis = test: as above; parameters: key to Survival value enfa: 24 h count / control count; 1 = no change, 0.1 = 1-log decrease
Method: as §1

Candida albicans = test: as above; parameters: key to Survival value caal: 24 h count / control count; 1 = no change, 0.1 = 1-log decrease
Method: as §1

Enterobacter aerogenes = test: as above; parameters: key to Survival value enae: 24 h count / control count; 1 = no change, 0.1 = 1-log decrease
Method: as §1

[1] = tested on: microorganisms of interest; test: Antimicrobial (cidal) activity against the organisms of interest taken together; settings: component alone
Method: as §1, with “With respect to changes in microbial count, a survival value of 1 represents no change; a survival value of 0.1 indicates a 1-log decrease; a survival value of 10 indicates a 1-log increase; and a survival value of 0.000 represents a decrease of greater than or equal to 3-logs. In comparison, the lower the survival value, the greater the component's capacity for controlling organism growth.” left out

With CCOC(=O)c1ccc(O)cc1 [Ethyl parahydroxybenzoate, ethyl parahydroxybenzoate] the “Concentration with cidal activity against Escherichia coli” value (Escherichia coli; component alone) was 1 mg/mL, the Survival value esco (Escherichia coli; single component at 0.5 mg/ml) was “tntc” and the Survival value esco (Escherichia coli; single component at 1 mg/ml) was 0.000. For the same compound, the “Concentration inhibitory against Klebsiella pneumoniae (ineffective up to = >)” value (Klebsiella pneumoniae) was greater than 1 mg/mL, the Survival value klpn (Klebsiella pneumoniae; single component at 0.5 mg/ml) was “tntc” and the “Concentration inhibitory against Proteus vulgaris (ineffective up to = >)” value (Proteus vulgaris) was greater than 1 mg/mL. For the same compound, the Survival value prvu (Proteus vulgaris; single component at 0.5 mg/ml) was “tntc”, the “Concentration inhibitory against Pseudomonas aeruginosa (ineffective up to = >)” value (Pseudomonas aeruginosa) was greater than 1 mg/mL and the Survival value psae (Pseudomonas aeruginosa; single component at 0.5 mg/ml) was “tntc”. The Survival value psae (Pseudomonas aeruginosa; single component at 1 mg/ml) was “tntc”, the “Concentration inhibitory against Enterococcus faecalis (ineffective up to = >)” value (Enterococcus faecalis; component alone) was greater than 1 mg/mL and the Survival value enfa (Enterococcus faecalis; single component at 0.5 mg/ml) was “tntc”. The Survival value enfa (Enterococcus faecalis; single component at 1 mg/ml) was “tntc”, the “Concentration inhibitory against Candida albicans (ineffective up to = >)” value (Candida albicans; component alone) was 0.5 mg/mL and the Survival value caal (Candida albicans; single component at 0.5 mg/ml) was 0.362. For the same compound, the “Concentration inhibitory against Enterobacter aerogenes (ineffective up to = >)” value (Enterobacter aerogenes; component alone) was 1 mg/mL and the Survival value enae (Enterobacter aerogenes; single component at 1 mg/ml) was 0.208.
For CC=Cc1ccc(O)c(OC)c1 [Isoeugenol, isoeugenol], the “Concentration with cidal activity against Escherichia coli” value (Escherichia coli; component alone) was 1.5 μl/ml, the Survival value esco (Escherichia coli; single component at 0.2 μl/ml) was “tntc” and the Survival value esco (Escherichia coli; single component at 0.5 μl/ml) was “tntc”. The Survival value esco (Escherichia coli; single component at 1.5 μl/ml) was 0.000, the Survival value esco (Escherichia coli; single component at 2.5 μl/ml) was 0.000 and the Survival value esco (Escherichia coli; single component at 4.6 μl/ml) was 0.000. The Survival value klpn (Klebsiella pneumoniae; single component at 0.2 μl/ml) was “tntc”, the Survival value prvu (Proteus vulgaris; single component at 0.2 μl/ml) was “tntc” and the Survival value psae (Pseudomonas aeruginosa; single component at 0.2 μl/ml) was “tntc”. The Survival value psae (Pseudomonas aeruginosa; single component at 1.5 μl/ml) was “tntc”, the Survival value psae (Pseudomonas aeruginosa; single component at 2.5 μl/ml) was 0.398 and the “Concentration with cidal activity against Enterococcus faecalis” value (Enterococcus faecalis; component alone) was greater than 4.6 μl/ml. For the same compound, the Survival value enfa (Enterococcus faecalis; single component at 0.2 μl/ml) was “tntc”, the Survival value enfa (Enterococcus faecalis; single component at 0.5 μl/ml) was “tntc” and the Survival value enfa (Enterococcus faecalis; single component at 1.5 μl/ml) was “tntc”. The Survival value enfa (Enterococcus faecalis; single component at 2.5 μl/ml) was 0.750, the Survival value enfa (Enterococcus faecalis; single component at 4.6 μl/ml) was 0.460 and the “Concentration with cidal activity against Candida albicans” value (Candida albicans; component alone) was 2.5 μl/ml. The Survival value caal (Candida albicans; single component at 0.2 μl/ml) was 0.160, the Survival value caal (Candida albicans; single component at 0.5 μl/ml) was 2.786 and the Survival value caal (Candida albicans; single component at 1.5 μl/ml) was 0.152. For the same compound, the Survival value caal (Candida albicans; single component at 2.5 μl/ml) was 0.000, the Survival value caal (Candida albicans; single component at 4.6 μl/ml) was 0.000 and the “Concentration with cidal activity against Enterobacter aerogenes” value (Enterobacter aerogenes; component alone) was 2.5 μl/ml. For the same compound, the Survival value enae (Enterobacter aerogenes; single component at 1.5 μl/ml) was “tntc”, the Survival value enae (Enterobacter aerogenes; single component at 2.5 μl/ml) was 0.000 and the “Concentration required for cidal antimicrobial action for many organisms of interest” value [1] was “greater than 1.5 μg/ml”.
In the case of CCC(=O)[O-].[Na+] [Sodium propionate, sodium propionate], the “Concentration inhibitory against Escherichia coli (ineffective up to = >)” value (Escherichia coli; component alone) is reported as greater than 10 mg/mL, the Survival value esco (Escherichia coli; single component at 5 mg/ml) is reported as “tntc” and the Survival value esco (Escherichia coli; single component at 10 mg/ml) is reported as “tntc”. For the same compound, the “Concentration inhibitory against Klebsiella pneumoniae (ineffective up to = >)” value (Klebsiella pneumoniae) was greater than 10 mg/mL, the Survival value klpn (Klebsiella pneumoniae; single component at 5 mg/ml) was “tntc” and the “Concentration inhibitory against Proteus vulgaris (ineffective up to = >)” value (Proteus vulgaris) was greater than 10 mg/mL. For the same compound, the Survival value prvu (Proteus vulgaris; single component at 5 mg/ml) was “tntc”, the “Concentration inhibitory against Pseudomonas aeruginosa (ineffective up to = >)” value (Pseudomonas aeruginosa) was 10 mg/mL and the Survival value psae (Pseudomonas aeruginosa; single component at 5 mg/ml) was “tntc”. For the same compound, the Survival value psae (Pseudomonas aeruginosa; single component at 10 mg/ml) was 0.341, the “Concentration inhibitory against Enterococcus faecalis (ineffective up to = >)” value (Enterococcus faecalis; component alone) was 10 mg/mL and the Survival value enfa (Enterococcus faecalis; single component at 5 mg/ml) was “tntc”. The Survival value enfa (Enterococcus faecalis; single component at 10 mg/ml) was 2.702, the “Concentration inhibitory against Candida albicans (ineffective up to = >)” value (Candida albicans; component alone) was greater than 10 mg/mL and the Survival value caal (Candida albicans; single component at 5 mg/ml) was “tntc”. The “Concentration inhibitory against Enterobacter aerogenes (ineffective up to = >)” value (Enterobacter aerogenes; component alone) was greater than 10 mg/mL.
